The target in test [1] is Growth factor receptor-bound protein 2 (Homo sapiens, UniProt P62993). Description: Dissociation constant for binding to SH2 domain of Growth factor receptor bound protein 2, Grb2.
Test [2] can be described thus: Dissociation constant for binding to SH2 domain of Phospholipase C gamma.
A short description of test [3]: Dissociation constant for binding to SH2 domain of Phosphatidylinositol 3-kinase p85 subunit.
For test [4], the target named is Tyrosine-protein kinase Lck (Homo sapiens, UniProt P06239). Briefly: Dissociation constant for binding to SH2 domain of p56 lck tyrosine kinase.
Test [5] concerns the target Tyrosine-protein kinase Fyn (Homo sapiens, UniProt P06241). Briefly: Dissociation constant for binding to SH2 domain of Fyn protein kinase.

Chain of Tyrosine-protein kinase Fyn (P06241 whole entry, the tested form may be a part): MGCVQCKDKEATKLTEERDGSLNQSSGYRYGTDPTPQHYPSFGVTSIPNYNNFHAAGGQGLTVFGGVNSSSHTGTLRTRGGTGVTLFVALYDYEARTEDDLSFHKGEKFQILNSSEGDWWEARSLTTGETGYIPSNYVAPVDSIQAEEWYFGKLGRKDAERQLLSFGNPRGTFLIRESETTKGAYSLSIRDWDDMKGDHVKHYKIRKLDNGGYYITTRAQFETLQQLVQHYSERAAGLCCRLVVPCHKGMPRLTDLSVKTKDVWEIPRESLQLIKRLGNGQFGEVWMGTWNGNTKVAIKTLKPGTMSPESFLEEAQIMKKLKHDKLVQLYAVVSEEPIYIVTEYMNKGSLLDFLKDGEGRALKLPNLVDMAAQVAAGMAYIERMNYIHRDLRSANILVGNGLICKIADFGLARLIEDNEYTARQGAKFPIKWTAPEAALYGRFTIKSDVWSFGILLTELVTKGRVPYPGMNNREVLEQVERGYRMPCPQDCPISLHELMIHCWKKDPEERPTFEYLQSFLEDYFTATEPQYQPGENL
Chain of Tyrosine-protein kinase Lck (P06239 whole entry, the tested form may be a part): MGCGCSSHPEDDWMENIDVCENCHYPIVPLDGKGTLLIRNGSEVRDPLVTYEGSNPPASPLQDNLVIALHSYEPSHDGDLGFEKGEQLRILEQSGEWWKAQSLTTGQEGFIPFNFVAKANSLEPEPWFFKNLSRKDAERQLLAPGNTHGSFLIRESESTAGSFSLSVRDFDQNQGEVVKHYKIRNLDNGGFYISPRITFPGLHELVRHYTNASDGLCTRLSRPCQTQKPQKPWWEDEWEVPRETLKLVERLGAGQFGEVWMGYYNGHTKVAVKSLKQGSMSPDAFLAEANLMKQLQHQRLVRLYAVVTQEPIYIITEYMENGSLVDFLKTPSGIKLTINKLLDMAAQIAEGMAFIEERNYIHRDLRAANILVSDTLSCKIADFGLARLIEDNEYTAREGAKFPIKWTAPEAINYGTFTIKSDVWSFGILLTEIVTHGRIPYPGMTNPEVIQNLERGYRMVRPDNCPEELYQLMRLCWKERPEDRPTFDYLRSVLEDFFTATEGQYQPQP
Chain of Growth factor receptor-bound protein 2 (P62993 whole entry, the tested form may be a part): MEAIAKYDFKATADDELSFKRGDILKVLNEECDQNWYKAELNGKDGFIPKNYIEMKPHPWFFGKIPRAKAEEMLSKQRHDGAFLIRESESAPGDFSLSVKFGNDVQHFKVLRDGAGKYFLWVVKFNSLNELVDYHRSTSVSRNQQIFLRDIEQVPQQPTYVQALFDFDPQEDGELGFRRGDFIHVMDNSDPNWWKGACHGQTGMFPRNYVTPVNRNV

`O=C(O)Cc1cc(=O)oc2cc(O)ccc12`: the Kd – broadly, the equilibrium constant for the complex coming apart – in test [1] worked out at 11.3 µM; in test [2] it was 4.9 µM; in test [3], 9.3 µM; in test [4], 0.035 µM; in test [5], 0.15 µM.
In the case of `O=C(O)c1ccsc1`, the Kd worked out at 0.26 µM in test [4] and 0.7 µM in test [5].
Regarding `O=C(O)c1cc(C(=O)O)cc(S(=O)(=O)O)c1`, the Kd in test [4] amounted to 0.22 µM; in test [5], 0.06 µM.
On to `COc1ccc2c(CC(=O)O)cc(=O)oc2c1`, for which the Kd in test [4] worked out at 2.5 µM.
Turning to `COc1cc(Br)c(C(=O)O)cc1OC`, the figures for the Kd in test [4] and in test [5] were 0.24 µM and 0.5 µM, respectively.
On to `O=C(O)CNC(=O)c1ccc([N+](=O)[O-])cc1`, for which the equilibrium dissociation constant (Kd) came out at 0.29 µM in test [4] and 0.24 µM in test [5].

The record behind these values is ChEMBL document CHEMBL1132595, “Acquisition of high-affinity, SH2-targeted ligands via a spatially focused library” (J Med Chem, 1999).
